Data published in publication PMC9963876, “Multiple Effects of Echinochrome A on Selected Ion Channels Implicated in Skin Physiology” (Marine Drugs, 2023).

Assays:
TRPV3 = molecular target: T1, TRPV3 (Homo sapiens, UniProt Q8NET8); test: whole-cell patch clamp, TRPV3-overexpressing HEK […], 2-APB-activated current; format: cell-based
T1 sequence (Q8NET8 1-790): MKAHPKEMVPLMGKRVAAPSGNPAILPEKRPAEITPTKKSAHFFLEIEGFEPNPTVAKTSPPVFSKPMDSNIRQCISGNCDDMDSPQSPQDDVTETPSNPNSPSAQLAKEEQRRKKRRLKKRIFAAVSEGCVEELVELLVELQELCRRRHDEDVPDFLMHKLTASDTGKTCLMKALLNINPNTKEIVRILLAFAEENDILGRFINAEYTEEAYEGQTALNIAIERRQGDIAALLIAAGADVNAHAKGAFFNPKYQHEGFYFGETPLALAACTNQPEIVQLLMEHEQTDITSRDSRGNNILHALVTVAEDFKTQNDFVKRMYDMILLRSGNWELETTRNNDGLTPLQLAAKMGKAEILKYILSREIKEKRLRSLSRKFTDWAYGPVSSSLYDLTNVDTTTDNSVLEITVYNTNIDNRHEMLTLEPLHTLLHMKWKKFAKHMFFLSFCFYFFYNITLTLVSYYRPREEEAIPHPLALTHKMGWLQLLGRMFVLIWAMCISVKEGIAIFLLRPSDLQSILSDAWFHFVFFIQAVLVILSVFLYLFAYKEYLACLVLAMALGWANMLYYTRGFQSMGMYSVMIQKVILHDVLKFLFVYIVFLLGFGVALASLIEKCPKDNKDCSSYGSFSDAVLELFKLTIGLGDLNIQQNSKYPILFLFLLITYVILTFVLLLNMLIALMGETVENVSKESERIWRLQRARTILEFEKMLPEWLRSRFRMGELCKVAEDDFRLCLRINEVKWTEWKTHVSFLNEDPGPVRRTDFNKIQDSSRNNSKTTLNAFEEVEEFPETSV

Orai1 = molecular target: T2, Orai1 (Homo sapiens, UniProt Q96D31); test: whole-cell patch clamp, Orai1/STIM1 co-expressing HEK […]; format: cell-based
T2 construct: with STIM1
T2 sequence (Q96D31 whole entry): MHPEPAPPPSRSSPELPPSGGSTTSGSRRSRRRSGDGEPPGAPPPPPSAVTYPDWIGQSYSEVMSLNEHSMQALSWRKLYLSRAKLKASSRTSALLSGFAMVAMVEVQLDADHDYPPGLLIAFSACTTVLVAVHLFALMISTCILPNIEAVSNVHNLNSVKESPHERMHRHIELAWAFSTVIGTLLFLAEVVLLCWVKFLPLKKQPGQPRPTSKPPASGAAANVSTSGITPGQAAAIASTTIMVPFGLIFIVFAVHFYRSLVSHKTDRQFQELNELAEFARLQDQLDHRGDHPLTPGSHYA
T2 sequence (Q13586 23-685 partner): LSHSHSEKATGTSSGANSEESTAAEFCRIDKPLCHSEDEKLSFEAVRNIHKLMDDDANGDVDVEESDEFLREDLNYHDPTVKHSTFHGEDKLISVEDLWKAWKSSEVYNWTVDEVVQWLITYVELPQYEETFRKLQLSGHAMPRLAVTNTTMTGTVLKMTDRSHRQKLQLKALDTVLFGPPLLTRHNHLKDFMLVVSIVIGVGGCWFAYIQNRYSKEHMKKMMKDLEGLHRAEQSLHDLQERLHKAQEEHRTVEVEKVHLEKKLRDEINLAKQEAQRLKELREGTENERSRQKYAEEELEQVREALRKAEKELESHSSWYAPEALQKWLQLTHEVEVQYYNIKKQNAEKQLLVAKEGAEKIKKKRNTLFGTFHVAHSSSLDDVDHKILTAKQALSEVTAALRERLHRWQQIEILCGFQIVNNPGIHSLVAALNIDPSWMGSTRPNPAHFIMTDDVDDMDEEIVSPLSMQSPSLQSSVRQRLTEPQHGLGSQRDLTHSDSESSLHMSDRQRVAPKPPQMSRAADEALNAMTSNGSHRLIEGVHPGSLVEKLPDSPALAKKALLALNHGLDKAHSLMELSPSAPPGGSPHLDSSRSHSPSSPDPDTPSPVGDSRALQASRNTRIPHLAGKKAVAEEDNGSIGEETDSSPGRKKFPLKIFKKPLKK

CCc1c(O)c(O)c2c(c1O)C(=O)C(O)=C(O)C2=O [Ech A, 6-ethyl-2,3,5,7,8-pentahydroxy-1,4-naphthoquinone]
IC50 (TRPV3): 2110 ± 1050 nM | IC50 (Orai1): 2410 ± 1550 nM
